Reference: patent US8092816B2, “Insecticidal compositions for control of general household pests” (priority 2004, dated 2012)

Key:
Oriental cockroach = assay: Example 10: Oriental cockroach knockdown and mortality, bifenthrin and thiamethoxam; format: in vivo
Excerpt: (§1) The following examples further illustrate the present invention, but, of course, should not be construed as in any way limiting its scope. The examples set forth certain biological data illustrating the efficacy of the compositions of the present invention in controlling general household pests. Each example embodies a separate test wherein the pests were randomly selected from a population at a random age. As a result, from example to example, the ages of the pests can be very different. This age difference potentially translates to different baselines for each example. Therefore, data should only be compared within the example and not from example to example due to the differences in age of the pests from example to example. Unless otherwise indicated, all parts, percentages, and the like are by weight. The spray chamber used in the examples was approximately 76 inches tall, 73 inches long and 31 inches deep with an adjustable shelf (approximately 22 inches deep) and a movable spray nozzle. The spray chambers were calibrated to deliver a volume of approximately 1 gallon of liquid per 1000 square feet of area at about 14 pounds per square inch of pressure. A DeVilbiss hand held sprayer (Atomizer model 152) manufactured by DeVilbiss located in Glendale Heights, Ill. was used in testing house flies and mosquitoes. The DeVilbiss was used to apply approximately 3-5 milliliters of product at about 10 pounds per square inch.
The compositions of the present invention were tested for Oriental cockroach activity in the following manner:
Test compositions made up of TALSTARONE® MULTI-INSECTICIDE and a water dispersible granular of thiamethoxam (CENTRIC) in distilled water were prepared that provided appropriate rates of application of combinations of bifenthrin and thiamethoxam, as well as bifenthrin and thiamethoxam alone.
(§2) The spray chamber was then calibrated to deliver the treatment solution at the desired volume and pressure over the desired area on the chamber shelf. Spray chamber shelf height was adjusted to approximately 18 inches from the spray tip. The shelf was then covered with aluminum foil and the center of the shelf from front-to-back and end-to-end was determined. A desired number of 4.0″ sieve circles were marked on the aluminum foil with a permanent marker. The inside of a desired number of PVC rings were coated with a petroleum jelly/mineral oil mixture (1:2 ratio). The PVC rings were place on the sieve circles. 10 male Oriental cockroaches were placed inside each PVC ring. The sprayer was activated and the test compound was applied to each PVC ring interior. Oriental cockroach knockdown and mortality were measured.

German cockroach = assay: Example 13: German cockroach mortality, bifenthrin and clothianidin; format: in vivo
Excerpt: as §1
The compositions of the present invention were tested for German cockroach activity in the following manner:
Test compositions made up of TALSTARONE® MULTI-INSECTICIDE and a 16% a.i. water dispersible granular of clothianidin in distilled water were prepared that provided appropriate rates of application of combinations of bifenthrin and clothianidin, as well as bifenthrin and clothianidin alone.
as §2, with “male German” for “male Oriental”, “interior. German” for “interior. Oriental”, “cockroach” for “cockroach knockdown and”, “mortality was” for “mortality were”

Red Imported Fire Ant = assay: Example 6: red imported fire ant knockdown and mortality, bifenthrin and imidacloprid (higher rates); format: in vivo, Solenopsis invicta
Excerpt: as §1
The compositions of the present invention were tested for red imported fire ant activity in the following manner:
Test compositions made up of TALSTARONE® MULTI-INSECTICIDE and a wettable powder of imidacloprid (MERIT) in distilled water were prepared that provided appropriate rates of application of combinations of bifenthrin and imidacloprid, as well as bifenthrin and imidacloprid alone.
The spray chamber was then calibrated to deliver the treatment solution at the desired volume and pressure over the desired area on the chamber shelf. Spray chamber shelf height was adjusted to approximately 18 inches from the spray tip. The shelf was then covered with aluminum foil and the center of the shelf from front-to-back and end-to-end was determined. The red imported file ants to be treated were collected and placed in screened 16 oz paper cups. The paper cups were placed onto the aluminum foil on the spray chamber shelf. The sprayer was activated and the test compound was applied to each paper cup interior. Red imported fire ant knockdown and mortality were measured.

[1] = rate of appln. 10 PPM (0.001% by weight)
[2] = rate of appln. 50 PPM (0.005% by weight)

Cc1c(COC(=O)[C@@H]2[C@H](/C=C(\Cl)C(F)(F)F)C2(C)C)cccc1-c1ccccc1 (racemic) [A, 2-methylbiphenyl-3-ylmethyl (Z)-(1RS)-cis-3-(2-chloro-3,3,3-trifluoroprop-1-enyl)-2,2-dimethylcyclopropanecarboxylate]
Knockdown Rate @ 15 minute (Oriental cockroach; 10 PPM, 0.001% by weight): 0% | Knockdown Rate @ 30 minute (Oriental cockroach; 10 PPM, 0.001% by weight): 0% | Mortality Rate @ 60 minutes (Oriental cockroach; 10 PPM, 0.001% by weight): 0% | Mortality Rate @ 120 minutes (Oriental cockroach; 10 PPM, 0.001% by weight): 0% | Mortality Rate @ 4 hours (Oriental cockroach; 10 PPM, 0.001% by weight): 0% | Mortality Rate @ 1 day (Oriental cockroach; 10 PPM, 0.001% by weight): 0% | Knockdown Rate @ 15 minute (Oriental cockroach; 50 PPM, 0.005% by weight): 0% | Knockdown Rate @ 30 minute (Oriental cockroach; 50 PPM, 0.005% by weight): 0% | Mortality Rate @ 60 minutes (Oriental cockroach; 50 PPM, 0.005% by weight): 0% | Mortality Rate @ 120 minutes (Oriental cockroach; 50 PPM, 0.005% by weight): 0% | Mortality Rate @ 4 hours (Oriental cockroach; 50 PPM, 0.005% by weight): 0% | Mortality Rate @ 1 day (Oriental cockroach; 50 PPM, 0.005% by weight): 45% | Mortality Rate @ 60 minutes (German cockroach; [1]): 8% | Mortality Rate @ 120 minutes (German cockroach; [1]): 33% | Mortality Rate @ 1 day (German cockroach; [1]): 35% | Mortality Rate @ 2 days (German cockroach; [1]): 60% | Mortality Rate @ 4 days (German cockroach; [1]): 100% | Mortality Rate @ 60 minutes (German cockroach; [2]): 15% | Mortality Rate @ 120 minutes (German cockroach; [2]): 48% | Mortality Rate @ 1 day (German cockroach; [2]): 58% | Mortality Rate @ 2 days (German cockroach; [2]): 100% | Mortality Rate @ 4 days (German cockroach; [2]): 100% | Knockdown Rate @ 5 minute (Red Imported Fire Ant; 200 PPM, 0.02% by weight): 0% | Knockdown Rate @ 10 minute (Red Imported Fire Ant; 200 PPM, 0.02% by weight): 0% | Knockdown Rate @ 15 minute (Red Imported Fire Ant; 200 PPM, 0.02% by weight): 70% | Knockdown Rate @ 30 minutes (Red Imported Fire Ant; 200 PPM, 0.02% by weight): 88% | Mortality @ 120 minutes (Red Imported Fire Ant; 200 PPM, 0.02% by weight): 100% | Mortality Rate @ 60 minutes (Red Imported Fire Ant; 200 PPM, 0.02% by weight): 100% | Mortality Rate @ 4 hours (Red Imported Fire Ant; 200 PPM, 0.02% by weight): 100% | Knockdown Rate @ 5 minute (Red Imported Fire Ant; 600 PPM, 0.06% by weight): 0% | Knockdown Rate @ 10 minute (Red Imported Fire Ant; 600 PPM, 0.06% by weight): 40% | Knockdown Rate @ 15 minute (Red Imported Fire Ant; 600 PPM, 0.06% by weight): 88% | Knockdown Rate @ 30 minutes (Red Imported Fire Ant; 600 PPM, 0.06% by weight): 100% | Mortality @ 120 minutes (Red Imported Fire Ant; 600 PPM, 0.06% by weight): 100% | Mortality Rate @ 60 minutes (Red Imported Fire Ant; 600 PPM, 0.06% by weight): 100% | Mortality Rate @ 4 hours (Red Imported Fire Ant; 600 PPM, 0.06% by weight): 100%
